# Source: patent US20130281445A1 (priority 2011, published 2013)
# pIC50: −log10 of the molar value.
# Molecular target: T1, Choline Kinase alpha enzyme (Homo sapiens, UniProt P35790)
# T1 construct: hChoKα1(M1-V457) (NP_001268); GST (N); made in house; host or cells: E. coli BL21(DE3)
# Experiment: Choline Kinase Alpha Inhibition Assay (coupled NADH absorbance)
# Type: biochemical
# Details: not given
# Description: An assay buffer solution was prepared which consisted of 100 mM Tris-HCl (pH 7.5), 100 mM KCl, and 10 mM MgCl2. An enzyme buffer containing reagents to final assay concentrations of 290 μM NADH, 2.4 mM phosphoenolpyruvate, 60 μg/mL pyruvate kinase, 20 μg/mL lactate dehydrogenase, 200 μM choline chloride substrate and 20 nM Choline Kinase alpha enzyme was prepared in assay buffer. To 32 μL of this enzyme buffer, in a 96 well plate, was added 2 μL of VRT stock solution in DMSO. The mixture was allowed to equilibrate for 10 mins at 25° C. The enzyme reaction was initiated by the addition of 32 μL stock ATP solution prepared in assay buffer to a final assay concentration of 400 μM. Initial rate data was determined from the rate of change of absorbance at 340 nm (corresponding to stoichiometric consumption of NADH) using a Molecular Devices Spectramax plate reader (Sunnyvale, Calif.) over 15 mins at 25° C. For each IC50 determination, 12 data points covering the VRT concentration range of 0-100 μM were obtained in duplicate (DMSO stocks were prepared from an initial 10 mM VRT stock with subsequent 1:2.5 serial dilutions). IC50 values were calculated from initial rate data using the Prism software package (Prism 4.0a, Graphpad Software, San Diego, Calif.).
# hChoKα1(M1-V457) (NP_001268) was codon optimized for E. coli and cloned into a modified pGEX-2T vector. Recombinant GST-tagged ChoKα1 protein was produced in E. coli strain BL21(DE3). After growing cell cultures at 37° C. until the OD600=1, the cultures were induced with 1 mM IPTG for 16 h at 30° C. and the cells were harvested as a pellet (8500 rpm, 4° C., 20 min). The protein was purified using glutathione affinity purification followed by size exclusion via Superdex-200 26/60 (GE Healthcare). See Malito, Enrico et. al., “Journal of Molecular Biology”, Volume 364, Issue 2, pages 136-151 (November 2006).
# T1 sequence (P35790 whole entry): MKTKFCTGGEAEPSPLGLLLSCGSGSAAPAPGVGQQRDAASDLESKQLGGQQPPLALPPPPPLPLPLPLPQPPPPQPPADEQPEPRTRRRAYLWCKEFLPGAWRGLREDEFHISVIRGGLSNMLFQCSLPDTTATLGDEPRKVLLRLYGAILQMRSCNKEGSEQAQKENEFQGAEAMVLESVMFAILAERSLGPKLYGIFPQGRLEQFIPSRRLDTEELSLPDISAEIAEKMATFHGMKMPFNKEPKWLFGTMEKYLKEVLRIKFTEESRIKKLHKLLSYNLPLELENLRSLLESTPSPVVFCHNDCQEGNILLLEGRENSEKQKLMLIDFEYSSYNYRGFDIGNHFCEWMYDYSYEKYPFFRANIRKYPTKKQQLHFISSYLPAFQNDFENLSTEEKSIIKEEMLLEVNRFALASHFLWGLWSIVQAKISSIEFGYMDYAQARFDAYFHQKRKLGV
row,SMILES,pIC50
1,"CN(C)c1ccc(C(=O)C2CN3CCC2CC3)cc1 (stereo not drawn) [Compound I-1, (4-dimethylaminophenyl)-quinuclidin-3-yl-methanone]",> 7.00
2,"O=C(c1ccc(N2CCCC2)cc1)C1CN2CCC1CC2 (stereo not drawn) [Compound I-3, (4-pyrrolidin-1-ylphenyl)-quinuclidin-3-yl-methanone]",> 7.00
3,CN1CCOc2cc(C(=O)C3CN4CCC3CC4)ccc21 (stereo not drawn) [Compound I-5],> 7.00
4,"O=C(c1ccc(-c2ccccc2)cc1)C1CN2CCC1CC2 (stereo not drawn) [Compound I-14, (4-phenylphenyl)-quinuclidin-3-yl-methanone]",4.30 to 6.00

# Same assay, conditions: 20 nM enzyme, 200 μM choline chloride, 400 μM ATP, 25° C.; read-out: IC50 values, Choline Kinase Alpha inhibition
row,SMILES,pIC50
1,"CCN(CC)c1ccc(C(=O)C2CN3CCC2CC3)cc1 (stereo not drawn) [Compound I-2, [4-(diethylamino)phenyl]-quinuclidin-3-yl-methanone]",6.00 to 7.00
2,"O=C(c1ccc(N2CCCCC2)cc1)C1CN2CCC1CC2 (stereo not drawn) [Compound I-4, [4-(1-piperidyl)phenyl]-quinuclidin-3-yl-methanone]",6.00 to 7.00
3,"O=C(Cc1ccccc1)C1CN2CCC1CC2 (stereo not drawn) [Compound I-6, 2-phenyl-1-(quinuclidin-3-yl)ethanone]",4.30 to 6.00
4,"COc1ccc(C(=O)C2CN3CCC2CC3)cc1 (stereo not drawn) [Compound I-7, (4-methoxyphenyl)-quinuclidin-3-yl-methanone]",4.30 to 6.00
5,"O=C(c1ccc2ccccc2c1)C1CN2CCC1CC2 (stereo not drawn) [Compound I-8, 2-naphthyl(quinuclidin-3-yl)methanone]",6.00 to 7.00
6,"O=C(c1cccc(F)c1)C1CN2CCC1CC2 (stereo not drawn) [Compound I-9, (3-fluorophenyl)-quinuclidin-3-yl-methanone]",4.30 to 6.00
7,"O=C(c1ccc(F)cc1)C1CN2CCC1CC2 (stereo not drawn) [Compound I-10, (4-fluorophenyl)-quinuclidin-3-yl-methanone]",4.30 to 6.00
8,"O=C(c1ccc(F)c(Cl)c1)C1CN2CCC1CC2 (stereo not drawn) [Compound I-11, (3-chloro-4-fluoro-phenyl)-quinuclidin-3-yl-methanone]",4.30 to 6.00
9,"COc1cc(OC)cc(C(=O)C2CN3CCC2CC3)c1 (stereo not drawn) [Compound I-12, (3,5-dimethoxyphenyl)-quinuclidin-3-yl-methanone]",4.30 to 6.00
10,"CCCc1ccc(C(=O)C2CN3CCC2CC3)cc1 (stereo not drawn) [Compound I-13, (4-propylphenyl)-quinuclidin-3-yl-methanone]",6.00 to 7.00
11,"O=C(c1ccc2c(c1)OCO2)C1CN2CCC1CC2 (stereo not drawn) [Compound I-15, 1,3-benzodioxol-5-yl(quinuclidin-3-yl)methanone]",4.30 to 6.00
12,"CCc1ccc(C(=O)C2CN3CCC2CC3)cc1 (stereo not drawn) [Compound I-16, (4-ethylphenyl)-quinuclidin-3-yl-methanone]",6.00 to 7.00
13,"O=C(c1cccc2ccccc12)C1CN2CCC1CC2 (stereo not drawn) [Compound I-17, 1-naphthyl(quinuclidin-3-yl)methanone]",4.30 to 6.00
14,"O=C(c1cccc(-c2ccccc2)c1)C1CN2CCC1CC2 (stereo not drawn) [Compound I-18, (3-phenylphenyl)-quinuclidin-3-yl-methanone]",4.30 to 6.00
15,"O=C(c1ccc(OC(F)(F)F)cc1)C1CN2CCC1CC2 (stereo not drawn) [Compound I-19, quinuclidin-3-yl-[4-(trifluoromethoxy)phenyl]methanone]",4.30 to 6.00
16,"CC(C)(C)c1ccc(C(=O)C2CN3CCC2CC3)cc1 (stereo not drawn) [Compound I-20, (4-tert-butylphenyl)-quinuclidin-3-yl-methanone]",6.00 to 7.00

row,SMILES,pIC50
1,"Cc1cccc(C(=O)C2CN3CCC2CC3)c1C (stereo not drawn) [Compound I-21, (2,3-dimethylphenyl)-quinuclidin-3-yl-methanone]",4.30 to 6.00
2,"O=C(c1nc2ccccc2s1)C1CN2CCC1CC2 (stereo not drawn) [Compound I-22, benzo[d]thiazol-2-yl(quinuclidin-3-yl)methanone]",4.30 to 6.00
3,"Cc1ccc(Cl)cc1C(=O)C1CN2CCC1CC2 (stereo not drawn) [Compound I-23, (5-chloro-2-methylphenyl)(quinuclidin-3-yl)methanone]",4.30 to 6.00
4,"Cc1ncccc1C(=O)C1CN2CCC1CC2 (stereo not drawn) [Compound I-24, (2-methyl-3-pyridyl)-quinuclidin-3-yl-methanone]",4.30 to 6.00
5,"CN(C)c1ccc(C(=O)C2CN3CCC2CC3)cc1Br (stereo not drawn) [Compound I-25, [3-bromo-4-(dimethylamino)phenyl]-quinuclidin-3-yl-methanone]",6.00 to 7.00
6,"CN(C)c1c(Br)cc(C(=O)C2CN3CCC2CC3)cc1Br (stereo not drawn) [Compound I-26, [3,5-dibromo-4-(dimethylamino)phenyl]-quinuclidin-3-yl-methanone]",4.30 to 6.00
7,"Cc1cc(C(=O)C2CN3CCC2CC3)ccc1N(C)C (stereo not drawn) [Compound I-27, (4-(dimethylamino)-3-methylphenyl)(quinuclidin-3-yl)methanone]",6.00 to 7.00
8,"CN1CCN(C)c2cc(C(=O)C3CN4CCC3CC4)ccc21 (stereo not drawn) [Compound I-28, (1,4-dimethyl-2,3-dihydroquinoxalin-6-yl)-quinuclidin-3-yl-methanone]",6.00 to 7.00
9,"CC(O)c1ccc(C(=O)C2CN3CCC2CC3)cc1 (stereo not drawn) [Compound I-29, [4-(1-hydroxyethyl)phenyl]-quinuclidin-3-yl-methanone]",4.30 to 6.00
10,CN1CCc2cc(C(=O)C3CN4CCC3CC4)ccc21 (stereo not drawn) [Compound I-30],6.00 to 7.00
11,"Cc1ccccc1C(=O)C1CN2CCC1CC2 (stereo not drawn) [Compound I-31, o-tolyl(quinuclidin-3-yl)methanone]",4.30 to 6.00
12,"Cc1ccc(C(=O)C2CN3CCC2CC3)cc1 (stereo not drawn) [Compound I-32, p-tolyl(quinuclidin-3-yl)methanone]",4.30 to 6.00
13,"O=C(c1cccc(Cl)c1)C1CN2CCC1CC2 (stereo not drawn) [Compound I-33, (3-chlorophenyl)-quinuclidin-3-yl-methanone]",4.30 to 6.00
14,"O=C(c1ccc(Cl)cc1)C1CN2CCC1CC2 (stereo not drawn) [Compound I-34, (4-chlorophenyl)-quinuclidin-3-yl-methanone]",4.30 to 6.00
15,"O=C(c1ccccc1)C1CN2CCC1CC2 (stereo not drawn) [Compound I-35, phenyl(quinuclidin-3-yl)methanone]",4.30 to 6.00
16,CC(C)c1ccc(C(=O)C2CN3CCC2CC3)cc1 (stereo not drawn) [Compound I-36],6.00 to 7.00
